# In PubChem BioAssay (NCI):
#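 Method: 48-hour compound exposure of cells in 96-well plates, five concentrations, linear interpolation of endpoints. Abbreviation: GI50, concentration required for 50% inhibition of growth. TGI is the concentration that stops growth completely.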
# Tests used:
# Assay in all cases: NCI anticancer screen, dose series, 48 h
# [1] = system: TK-10 renal
# [2] = system: SF-268 CNS
# [3] = system: RXF 393 renal
# [4] = system: IGROV1 ovarian
# [5] = system: NCI-H460 lung
# [6] = system: MDA-MB-435
# [7] = system: A549 NSCLC
# [8] = system: EKVX NSCLC
# [9] = system: SNB-78 CNS
# [10] = system: HOP-18 NSCLC
# [11] = system: M19-MEL melanoma
# [12] = system: XF 498 CNS
# [13] = system: DMS 273 small cell lung
SMILES,TGI [1] [µM],TGI [2] [µM],TGI [3] [µM],TGI [4] [µM],TGI [5] [µM],TGI [6] [µM],TGI [7] [µM],TGI [8] [µM],TGI [9] [µM],TGI [10] [µM],TGI [11] [µM],TGI [12] [µM],TGI [13] [µM],GI50 [2] [µM],GI50 [4] [µM],GI50 [6] [µM],GI50 [7] [µM]
Cc1nc(SCC(=O)Nc2ccc(Cl)cc2)c2sc(=S)n(-c3ccccc3)c2n1,> 10,> 10,> 10,> 10,> 10,> 10,> 10,> 10,–,–,–,–,–,–,–,–,–
CC(CCC[C@H](C)CO)[C@H]1[C@@H](O)C(O)C2[C@@H]3C[C@@H](O)C4(O)C[C@@H](O)CC[C@]4(C)C3CC[C@@]21C (stereo partly drawn),> 100,> 100,> 100,> 100,> 100,–,> 100,> 100,> 100,> 100,> 100,> 100,> 100,–,–,–,–
CNC(=O)NCNC(=O)NC,> 100,–,–,> 100,> 100,–,> 100,> 100,> 100,> 100,> 100,–,> 100,–,–,–,–
CSC1(C)C(=O)Nc2c(OCc3ccccc3)cc([N+](=O)[O-])cc21 (stereo not drawn),> 100,> 100,> 100,> 100,> 100,> 100,> 100,> 100,–,–,–,–,–,–,–,–,–
S=C(N/N=C(\c1ccccc1)c1ccccn1)NC1CCCCC1,> 100,> 100,> 100,> 100,> 100,> 100,> 100,> 100,–,–,–,–,–,–,–,–,–
CC(=O)OC(CC1(C)C(C)CCC23COC(=O)C2=CCCC31)c1ccoc1 (stereo not drawn),–,36.2,27.7,–,> 100,–,> 100,97.6,70.4,–,> 100,44.6,–,–,–,–,–
CCOC(=O)CC1COc2ccc3c(c21)OCO3 (stereo not drawn),> 100,–,–,> 100,> 100,–,> 100,> 100,> 100,> 100,> 100,> 100,> 100,–,–,–,–
CC1(c2sccc2Cl)CC(c2sccc2Cl)=C(C#N)C(=C(C#N)C#N)N1 (stereo not drawn),31.6,38.5,42.4,42.4,43.6,48.3,75.6,34,–,–,–,–,–,–,–,–,–
CCCNC(=S)N/N=C(\C)c1ccc(S(=O)(=O)N(C)c2ccccc2)cc1,> 91.6,41.8,38.2,> 66.1,> 100,> 100,> 100,> 100,–,–,–,–,–,–,–,–,–
CCOC(=O)C(=O)C=P(c1ccccc1)(c1ccccc1)c1ccccc1,> 100,> 100,> 100,> 100,> 100,–,> 100,> 100,> 100,> 100,> 100,–,> 100,–,–,–,–
COC(=O)C1CCC(=S)N1C(=O)OCc1ccccc1 (stereo not drawn),> 100,> 100,> 100,> 100,> 100,> 100,> 100,> 100,–,–,–,–,–,–,–,–,–
CC(CC(N)C(=O)O)C(=O)O (stereo not drawn),> 100,> 100,> 100,> 100,> 100,> 100,> 100,> 100,–,–,–,–,–,–,–,–,–
COC(=O)c1c(C(=O)OC)c2ccccn2c1-c1cc(OC)c(Br)c(=O)o1,> 100,> 100,> 100,> 100,> 100,> 100,> 100,> 100,–,–,–,–,–,–,–,–,–
NNC(=O)CC(=O)Nc1cccc(Cl)c1,> 100,> 100,> 100,> 100,> 100,> 100,> 100,> 100,–,–,–,–,–,–,–,–,–
CSc1nc(C)cc(Nc2ccc(O)c(CN3CCOCC3)c2)n1,> 100,> 100,> 100,> 100,> 100,> 100,> 100,> 100,–,–,–,–,–,–,–,–,–
CCOC(=O)NN(C(=O)OCC)C(C(=O)C1=CCCCC1)N(NC(=O)OCC)C(=O)OCC,> 100,> 100,> 100,> 100,> 100,> 100,> 100,> 100,–,–,–,–,–,–,–,–,–
CN(C)c1ccc(/C=C/c2ccc(S(N)(=O)=O)cc2)cc1,39.8,> 100,> 100,33.4,> 100,23.7,26.2,52.5,–,–,–,–,–,7.16,13.4,7.63,10.1
CC(=O)c1[nH]c(NC(C)C)c(C(=S)Nc2ccccc2)c1N,> 100,65.9,50.3,> 100,> 100,49,94.3,> 100,–,–,–,–,–,–,–,–,–
COc1cccc(C23CCCC(C2)NCC3Br)c1OC (stereo not drawn),> 100,> 100,> 100,> 100,> 100,> 100,> 100,> 100,–,–,–,–,–,–,–,–,–
Cc1cc(Cl)nc2nc(Cl)c(N)cc12,13.6,3.5,> 32,22.9,5.43,4.64,37.2,10.5,–,–,–,–,–,–,–,–,–
COc1cc2c(c(OC)c1OC)-c1ccc(SC)c(=O)cc1C(CC(=O)Oc1cccc([N+](=O)[O-])c1)C2 (stereo not drawn),> 100,> 27.2,> 100,> 100,8.13,–,> 100,> 100,> 100,> 100,> 100,20.3,> 100,–,–,–,–
COc1cc2c3cc1Oc1c(O)c(OC)cc4c1C(Cc1ccc(O)c(c1)Oc1ccc(cc1)CC3N(C)CC2)N(C)CC4 (stereo not drawn),18.2,31.9,9.7,56.1,28.4,–,31.4,37.1,50.7,45,43.8,33.5,30.6,–,–,–,–
